# Article PMC12648285 (JACS Au, 2025)
# pIC50, pKi: −log10 of the molar value.
# Tests used:
# GAC = target: T1, GAC (Macaca mulatta, UniProt F7AIH5); test: Recombinant GAC enzymatic assay; assay type: biochemical
# T1 sequence (F7AIH5 73-598): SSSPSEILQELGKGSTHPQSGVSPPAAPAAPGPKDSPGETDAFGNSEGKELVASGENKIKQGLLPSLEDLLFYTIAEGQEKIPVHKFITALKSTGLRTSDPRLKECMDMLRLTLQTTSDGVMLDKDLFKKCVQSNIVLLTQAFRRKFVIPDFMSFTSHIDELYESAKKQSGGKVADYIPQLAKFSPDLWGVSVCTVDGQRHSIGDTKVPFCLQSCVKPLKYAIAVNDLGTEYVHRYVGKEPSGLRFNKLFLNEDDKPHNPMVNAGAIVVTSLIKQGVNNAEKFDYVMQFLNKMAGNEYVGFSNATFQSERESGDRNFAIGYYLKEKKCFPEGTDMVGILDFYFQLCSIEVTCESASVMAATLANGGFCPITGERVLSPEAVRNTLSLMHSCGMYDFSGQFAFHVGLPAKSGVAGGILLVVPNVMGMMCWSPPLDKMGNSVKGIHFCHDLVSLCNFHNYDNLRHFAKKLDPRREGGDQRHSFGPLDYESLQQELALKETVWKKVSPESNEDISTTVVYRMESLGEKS
# GAC (73-598) = test: Intact protein mass spectrometry, covalent modification of GAC; assay type: binding
# A549 cells [1] = test: Anti-proliferative assay, A549 cells; assay type: cell-based; conditions: 72 h
# GAC^WT and GAC^K320A = test: Western blot of acetylation of GAC WT and GAC K320A; assay type: biochemical; conditions: 45 min
# A549 cells [2] = test: Determination of intracellular glutamate and glutamine levels; assay type: cell-based; conditions: 16 h treatment
# A549 cells [3] = test: Determination of reactive oxygen species; assay type: cell-based; conditions: 16 h, flow cytometry
# TRKC = TRKC (Homo sapiens, UniProt Q16288); test: TRKC kinase biochemical assay
# TRKB = TRKB (Homo sapiens, UniProt Q16620); test: TRKB kinase biochemical assay
# TRKA = TRKA (Homo sapiens, UniProt P04629); test: TRKA kinase biochemical assay
# [4] = target: TRKA kinase domain (440-796) (Homo sapiens, UniProt P04629); test: Intact protein mass spectrometry, covalent labelling of TRKA; assay type: binding; conditions: intact protein MS, 2 h incubation, 25 °C, compound/protein 10:1
# [5] = tested on: p-TRKA and p-AKT in KM12-Luc cells; test: Western blot of TRKA activation and downstream signalling in KM12-Luc cells; assay type: cell-based; conditions: 6 h
# TRKA (440-796) [6] = target: T2, TRKA (440-796) (Homo sapiens, UniProt P04629); test: Time-dependent intact protein mass; assay type: binding
# TRKA (440-796) [7] = target: T2, TRKA (440-796); test: Site mapping using LC-MS/MS, TRKA+7; assay type: binding
# [8] = time-dependent intact protein MS, TRKA
# T2 sequence (P04629 440-796): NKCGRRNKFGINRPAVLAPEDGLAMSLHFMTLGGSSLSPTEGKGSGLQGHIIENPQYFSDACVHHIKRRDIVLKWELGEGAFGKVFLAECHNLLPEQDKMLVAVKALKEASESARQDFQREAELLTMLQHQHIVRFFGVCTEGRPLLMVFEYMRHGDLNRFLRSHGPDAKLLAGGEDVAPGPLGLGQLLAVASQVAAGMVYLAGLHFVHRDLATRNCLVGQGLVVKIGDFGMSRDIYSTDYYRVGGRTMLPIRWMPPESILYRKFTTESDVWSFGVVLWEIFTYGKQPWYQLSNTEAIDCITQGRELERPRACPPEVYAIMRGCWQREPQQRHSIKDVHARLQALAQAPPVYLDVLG
# Sequence of TRKA (P04629 33-796): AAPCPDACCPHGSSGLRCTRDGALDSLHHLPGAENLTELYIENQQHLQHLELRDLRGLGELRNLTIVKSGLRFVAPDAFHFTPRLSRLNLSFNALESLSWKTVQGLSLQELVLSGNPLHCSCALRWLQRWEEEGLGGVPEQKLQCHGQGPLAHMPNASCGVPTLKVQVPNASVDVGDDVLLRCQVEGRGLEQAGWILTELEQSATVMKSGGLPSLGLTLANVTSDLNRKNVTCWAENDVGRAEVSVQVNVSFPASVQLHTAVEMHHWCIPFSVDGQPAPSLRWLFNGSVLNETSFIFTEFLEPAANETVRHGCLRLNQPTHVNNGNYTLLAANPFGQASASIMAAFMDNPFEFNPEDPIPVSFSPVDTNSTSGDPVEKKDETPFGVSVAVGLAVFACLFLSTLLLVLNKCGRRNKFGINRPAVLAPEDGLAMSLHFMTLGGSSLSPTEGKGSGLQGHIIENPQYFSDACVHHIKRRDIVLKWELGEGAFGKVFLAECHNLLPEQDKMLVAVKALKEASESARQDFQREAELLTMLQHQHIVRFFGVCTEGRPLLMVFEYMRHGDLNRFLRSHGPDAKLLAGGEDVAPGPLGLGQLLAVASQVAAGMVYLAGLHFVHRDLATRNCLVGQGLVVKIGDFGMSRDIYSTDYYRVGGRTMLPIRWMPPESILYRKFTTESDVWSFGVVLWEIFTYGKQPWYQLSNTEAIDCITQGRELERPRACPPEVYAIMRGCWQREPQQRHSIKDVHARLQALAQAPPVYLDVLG
# Sequence of TRKC (Q16288 32-839): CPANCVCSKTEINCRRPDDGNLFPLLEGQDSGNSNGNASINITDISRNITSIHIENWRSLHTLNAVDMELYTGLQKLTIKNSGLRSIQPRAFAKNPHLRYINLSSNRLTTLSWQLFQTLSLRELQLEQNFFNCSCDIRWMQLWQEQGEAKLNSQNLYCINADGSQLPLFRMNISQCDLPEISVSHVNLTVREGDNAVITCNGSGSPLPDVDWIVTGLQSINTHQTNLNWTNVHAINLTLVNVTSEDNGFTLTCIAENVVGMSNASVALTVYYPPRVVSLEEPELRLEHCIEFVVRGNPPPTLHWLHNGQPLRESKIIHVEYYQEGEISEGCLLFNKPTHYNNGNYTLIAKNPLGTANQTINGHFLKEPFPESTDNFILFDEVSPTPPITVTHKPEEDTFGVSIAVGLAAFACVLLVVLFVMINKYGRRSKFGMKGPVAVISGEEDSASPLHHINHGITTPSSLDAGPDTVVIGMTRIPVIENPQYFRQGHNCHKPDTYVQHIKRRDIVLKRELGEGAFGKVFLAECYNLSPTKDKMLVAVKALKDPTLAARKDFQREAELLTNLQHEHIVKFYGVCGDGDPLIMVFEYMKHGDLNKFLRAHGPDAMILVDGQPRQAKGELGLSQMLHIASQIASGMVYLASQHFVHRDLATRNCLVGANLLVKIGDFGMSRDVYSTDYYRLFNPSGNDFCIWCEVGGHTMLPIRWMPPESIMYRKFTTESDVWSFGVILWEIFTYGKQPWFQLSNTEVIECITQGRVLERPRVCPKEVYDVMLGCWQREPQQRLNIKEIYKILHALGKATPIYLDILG
# Sequence of TRKA kinase domain (440-796) (P04629 440-796): as the sequence (P04629 440-796) above
# Sequence of TRKB (Q16620 32-822): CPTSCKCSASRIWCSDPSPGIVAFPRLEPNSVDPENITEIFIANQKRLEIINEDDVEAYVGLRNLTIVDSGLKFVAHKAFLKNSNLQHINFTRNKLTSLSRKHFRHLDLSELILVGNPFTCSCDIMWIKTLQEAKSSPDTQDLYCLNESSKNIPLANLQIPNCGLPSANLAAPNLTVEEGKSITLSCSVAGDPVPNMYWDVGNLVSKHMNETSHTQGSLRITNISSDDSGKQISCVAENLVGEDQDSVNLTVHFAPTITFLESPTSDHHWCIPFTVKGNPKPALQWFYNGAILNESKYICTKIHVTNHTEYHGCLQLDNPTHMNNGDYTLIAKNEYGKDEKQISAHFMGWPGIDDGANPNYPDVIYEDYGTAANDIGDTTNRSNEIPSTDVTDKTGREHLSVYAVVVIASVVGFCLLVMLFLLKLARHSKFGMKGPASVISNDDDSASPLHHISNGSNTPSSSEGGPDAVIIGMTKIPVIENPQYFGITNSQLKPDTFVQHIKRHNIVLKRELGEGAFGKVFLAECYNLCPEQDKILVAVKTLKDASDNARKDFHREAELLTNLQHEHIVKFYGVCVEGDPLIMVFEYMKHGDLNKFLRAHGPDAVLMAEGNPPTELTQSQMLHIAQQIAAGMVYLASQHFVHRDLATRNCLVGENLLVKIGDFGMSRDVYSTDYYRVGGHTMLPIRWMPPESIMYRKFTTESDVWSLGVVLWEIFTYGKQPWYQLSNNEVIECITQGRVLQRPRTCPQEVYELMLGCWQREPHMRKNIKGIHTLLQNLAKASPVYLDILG
smiles,measurement,setting,value
C#Cc1cc(CC(=O)Nc2nnc(N[C@@H]3CCN(c4cccnn4)C3)s2)ccc1C=O [Compound 15],GAC enzymatic inhibition compared to the reversible inhibitor 13,GAC,significantly enhanced GAC enzymatic inhibition
same,Covalent modification of GAC by intact protein MS,"GAC (73-598); 8 h, 25 °C",confirmed covalent modification of GAC
same,Cellular activity (A549 antiproliferative),A549 cells [1],limited efficacy
CC(=O)Oc1ccc(CC(=O)Nc2nnc(N[C@@H]3CCN(c4cccnn4)C3)s2)cc1C#N [Compound 16],Acetylation of wild-type vs Lys320 mutant GAC at low concentrations,GAC^WT and GAC^K320A; ≤2 μM,"selectively acetylated wild-type GAC, with no detectable modification of the Lys320 mutant"
same,Acetylation of wild-type vs Lys320 mutant GAC at higher concentrations,GAC^WT and GAC^K320A; ≥10 μM,emerging acetylation signals in the Lys320 mutant
same,Glutamine-to-glutamate conversion (intracellular GLU/GLN ratio),A549 cells [2],marked reduction
same,Total protein products displaying acetylation,GAC (73-598); MS of GAC-16 after 8 h incubation at 25 °C,71.05%
same,Intracellular reactive oxygen species (ROS) level,A549 cells [3],significantly increased
same,Cellular activity (A549 antiproliferative),A549 cells [1],enhanced antiproliferative activities
C#Cc1cc(-c2cc(Nc3nc(N[C@@H](C)c4ccc(F)cn4)ncc3Cl)n[nH]2)ccc1C=O [Compound 7],pIC50,TRKC,8.72
same,pIC50,TRKB,8.98
same,pIC50,TRKA,7.94
same,Total binding rate of TRKA modified by compound,[4],99.2%
same,Phosphorylation of TRKA and downstream AKT,[5],efficiently suppress the phosphorylation of TRKA as well as its downstream AKT
same,pKi,TRKA (440-796) [6],6.10
same,k inact (inactivation rate),TRKA (440-796) [6]; [8],0.0578 min^–1
same,k inact/K I,TRKA (440-796) [6]; [8],1.20 × 10^3 M^–1·s^–1
same,Covalent binding site identified in TRKA,TRKA (440-796) [7],Lys544
same,Modification rate of Lys544,"TRKA (440-796) [7]; TRKA + compound, 25 °C, 2 h",95%
C#Cc1c(C=O)cccc1CC(=O)Nc1nnc(N[C@@H]2CCN(c3cccnn3)C2)s1 [Compound 14],Covalent modification of GAC by intact protein MS,"GAC (73-598); 8 h, 25 °C",confirmed covalent modification of GAC
same,Labeling efficiency of GAC,"GAC (73-598); intact protein MS, 8 h, 25 °C, theoretical maximum 50%",~45%
same,Cellular activity (A549 antiproliferative),A549 cells [1],limited efficacy
